From patent US10239843B2 (CANCER RESEARCH TECHNOLOGY LIMITED, priority 2014, dated 2019)
Read-outs that look alike come from different tables or passages of the source.

Assays:
Human Full Length PARG = Human Full Length PARG (Homo sapiens (Human), UniProt Q86W56); experiment: PARG enzyme assay (TR-FRET); assay type: biochemical; conditions: read-out: PARG Biochem IC50
PARG in HeLa cell line = experiment: PARG cell assay (PAR chain immunofluorescence after MMS); assay type: cell-based; conditions: HeLa cells, MMS treatment, read-out: PARG Cell IC50
Summary of the method: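 Nuclear poly(ADP-ribose) chains in HeLa cells are read by indirect immunofluorescence with a mouse anti-PAR antibody applied overnight at 4° C after fixing and permeabilising. Cells get 1 h of compound, then 50 μg/mL MMS (final) for another hour. PAR persisting at that point reflects PARG inhibition.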

Human Full Length PARG, sequence (Q86W56 whole entry): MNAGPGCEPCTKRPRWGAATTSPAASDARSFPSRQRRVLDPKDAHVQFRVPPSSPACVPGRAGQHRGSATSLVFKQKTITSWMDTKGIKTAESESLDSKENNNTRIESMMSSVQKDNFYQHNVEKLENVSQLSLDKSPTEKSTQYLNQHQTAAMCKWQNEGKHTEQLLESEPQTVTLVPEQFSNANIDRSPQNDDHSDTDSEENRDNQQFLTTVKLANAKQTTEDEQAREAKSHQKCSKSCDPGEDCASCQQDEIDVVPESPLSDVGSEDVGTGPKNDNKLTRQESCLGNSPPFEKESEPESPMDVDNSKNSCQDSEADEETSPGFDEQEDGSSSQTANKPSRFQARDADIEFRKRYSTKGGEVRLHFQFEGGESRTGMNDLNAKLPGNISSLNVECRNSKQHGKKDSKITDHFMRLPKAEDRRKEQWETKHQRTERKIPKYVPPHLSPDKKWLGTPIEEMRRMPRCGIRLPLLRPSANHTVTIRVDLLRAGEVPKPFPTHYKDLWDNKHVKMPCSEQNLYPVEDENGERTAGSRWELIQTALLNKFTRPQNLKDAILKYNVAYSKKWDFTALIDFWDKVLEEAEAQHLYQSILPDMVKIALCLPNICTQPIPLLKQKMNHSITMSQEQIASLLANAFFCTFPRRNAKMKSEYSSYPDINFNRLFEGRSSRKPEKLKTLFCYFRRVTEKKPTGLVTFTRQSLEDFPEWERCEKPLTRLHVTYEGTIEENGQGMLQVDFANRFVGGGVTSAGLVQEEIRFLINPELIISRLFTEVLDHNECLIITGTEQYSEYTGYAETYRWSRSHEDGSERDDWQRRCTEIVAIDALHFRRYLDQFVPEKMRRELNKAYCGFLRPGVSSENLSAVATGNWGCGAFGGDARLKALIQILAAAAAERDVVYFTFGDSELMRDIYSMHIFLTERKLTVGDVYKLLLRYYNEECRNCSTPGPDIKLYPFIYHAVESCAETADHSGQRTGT

| Compound | IC50 (Human Full Length PARG) [nM] | IC50 (PARG in HeLa cell line) [nM] | IC50 (PARG in HeLa cell line; Homo sapiens) [nM] |
| --- | --- | --- | --- |
| Cn1cc(Cn2c(=O)c3cc(S(=O)(=O)NC4(C)CC4)ccc3n(CC(F)F)c2=O)cn1 [Example 599, 1-(2,2-Difluoroethyl)-N-(1-methylcyclopropyl)-3-[(1-methylpyrazol-4-yl)methyl]-2,4-dioxo-quinazoline-6-sulfonamide] | 263 |  | 93 |
| Cc1nnc(Cn2c(=O)[nH]c3ccc(S(=O)(=O)NC4(CF)CC4)cc3c2=O)s1 [Example 601, N-[1-(Fluoromethyl)cyclopropyl]-3-[(5-methyl-1,3,4-thiadiazol-2-yl)methyl]-2,4-dioxo-1H-quinazoline-6-sulfonamide] | 710 |  | 13500 |
| Cc1cc(Cn2c(=O)c3cc(S(=O)(=O)NC4(CF)CC4)ccc3n(C(F)F)c2=O)on1 [Example 604, 1-(Difluoromethyl)-N-[1-(fluoromethyl)cyclopropyl]-3-[(3-methylisoxazol-5-yl)methyl]-2,4-dioxo-quinazoline-6-sulfonamide] | 788 |  | 295 |
| Cc1cc(Cn2c(=O)c3cc(S(=O)(=O)NC4(C)CC4)ccc3n(C(F)F)c2=O)on1 [Example 605, 1-(Difluoromethyl)-N-(1-methylcyclopropyl)-3-[(3-methylisoxazol-5-yl)methyl]-2,4-dioxo-quinazoline-6-sulfonamide] | 1370 |  | 588 |
| Cn1cc(Cn2c(=O)c3cc(S(=O)(=O)NC4(C)CC4)ccc3n(C(F)F)c2=O)cn1 [Example 606, 1-(Difluoromethyl)-N-(1-methylcyclopropyl)-3-[(1-methylpyrazol-4-yl)methyl]-2,4-dioxo-quinazoline-6-sulfonamide] | 1470 |  | 248 |
| CCOCCn1c(=O)n(Cc2cnn(C)c2)c(=O)c2cc(S(=O)(=O)NC3(CF)CC3)ccc21 [Example 612] | 194 |  | 178 |
| COCCOCCn1c(=O)n(Cc2cnn(C)c2)c(=O)c2cc(S(=O)(=O)NC3(CF)CC3)ccc21 [Example 618, N-[1-(Fluoromethyl)cyclopropyl]-1-[2-(2-methoxyethoxy)ethyl]-3-[(1-methylpyrazol-4-yl)methyl]-2,4-dioxo-quinazoline-6-sulfonamide] | 247 | 325 |  |
| Cn1cc(Cn2c(=O)c3cc(S(=O)(=O)NC4(CF)CC4)ccc3n(CC3CCCO3)c2=O)cn1 (stereo not shown) [Example 619, N-[1-(Fluoromethyl)cyclopropyl]-3-[(1-methylpyrazol-4-yl)methyl]-2,4-dioxo-1-(tetrahydrofuran-2-ylmethyl)quinazoline-6-sulfonamide] | 190 |  | 233 |
| CCC(=O)Cn1c(=O)n(Cc2cnn(C)c2)c(=O)c2cc(S(=O)(=O)NC3(CF)CC3)ccc21 [Example 620, N-[1-(Fluoromethyl)cyclopropyl]-3-[(1-methylpyrazol-4-yl)methyl]-2,4-dioxo-1-(2-oxobutyl)quinazoline-6-sulfonamide] | 144 |  | 238 |
| Cn1cc(Cn2c(=O)c3cc(S(=O)(=O)NC4(C)CC4)ccc3n(CC(F)(F)F)c2=O)cn1 [Example 621, N-(1-Methylcyclopropyl)-3-[(1-methylpyrazol-4-yl)methyl]-2,4-dioxo-1-(2,2,2-trifluoroethyl)quinazoline-6-sulfonamide] | 257 |  | 135 |
| Cc1cc(Cn2c(=O)c3cc(S(=O)(=O)NC4(CF)CC4)ccc3n(CC(F)(F)F)c2=O)on1 [Example 622, N-[1-(Fluoromethyl)cyclopropyl]-3-[(3-methylisoxazol-5-yl)methyl]-2,4-dioxo-1-(2,2,2-trifluoroethyl)quinazoline-6-sulfonamide] | 355 |  | 228 |
| Cn1cc(Cn2c(=O)c3cc(S(=O)(=O)NC4(CF)CC4)ccc3n(CC(F)(F)F)c2=O)cn1 [Example 623, N-[1-(Fluoromethyl)cyclopropyl]-3-[(1-methylpyrazol-4-yl)methyl]-2,4-dioxo-1-(2,2,2-trifluoroethyl)quinazoline-6-sulfonamide] | 2670 |  | 10000 |
| Cn1c(=O)n(Cc2nncs2)c(=O)c2cc(S(=O)(=O)NC3(CF)CC3)ccc21 [Example 624, N-[1-(Fluoromethyl)cyclopropyl]-1-methyl-2,4-dioxo-3-(1,3,4-thiadiazol-2-ylmethyl)quinazoline-6-sulfonamide] | 1040 |  | 4350 |
| Cn1ncc(Cn2c(=O)c3cc(S(=O)(=O)NC4(CF)CC4)ccc3n(C)c2=O)n1 [Example 626, N-[1-(Fluoromethyl)cyclopropyl]-1-methyl-3-[(2-methyltriazol-4-yl)methyl]-2,4-dioxo-quinazoline-6-sulfonamide] | 3160 | 1810 |  |
| Cc1cc(Cn2c(=O)c3cc(S(=O)(=O)NC4(CF)CC4)ccc3n(Cc3nncs3)c2=O)on1 [Example 627, N-[1-(Fluoromethyl)cyclopropyl]-3-[(3-methylisoxazol-5-yl)methyl]-2,4-dioxo-1-(1,3,4-thiadiazol-2-ylmethyl)quinazoline-6-sulfonamide] | 159 |  | 351 |

The next molecules have a lower IC50 (Human Full Length PARG) than those just listed; values first:

| IC50 (Human Full Length PARG) [nM] | IC50 (PARG in HeLa cell line) [nM] | IC50 (PARG in HeLa cell line; Homo sapiens) [nM] | Compound |
| --- | --- | --- | --- |
| 112 | 523 |  | Cn1cc(Cn2c(=O)c3cc(S(=O)(=O)NC4(CF)CC4)ccc3n(Cc3cn(C)nn3)c2=O)cn1 [Example 593, N-[1-(Fluoromethyl)cyclopropyl]-3-[(1-methylpyrazol-4-yl)methyl]-1-[(1-methyltriazol-4-yl)methyl]-2,4-dioxo-quinazoline-6-sulfonamide] |
| 25 |  | 22 | Cc1ncc(Cn2c(=O)n(Cc3cnn(C)c3)c(=O)c3cc(S(=O)(=O)NC4(CF)CC4)ccc32)s1 [Example 594, N-[1-(Fluoromethyl)cyclopropyl]-3-[(1-methylpyrazol-4-yl)methyl]-1-[(2-methylthiazol-5-yl)methyl]-2,4-dioxo-quinazoline-6-sulfonamide] |
| 48 |  | 134 | Cn1cc(Cn2c(=O)c3cc(S(=O)(=O)NC4(CF)CC4)ccc3n(Cc3cnn(C)c3)c2=O)cn1 [Example 595, N-[1-(Fluoromethyl)cyclopropyl]-1,3-bis[(1-methylpyrazol-4-yl)methyl]-2,4-dioxo-quinazoline-6-sulfonamide] |
| 85 |  | 96 | Cn1cc(Cn2c(=O)c3cc(S(=O)(=O)NC4(CF)CC4)ccc3n(Cc3cnn(C)n3)c2=O)cn1 [Example 596, N-[1-(Fluoromethyl)cyclopropyl]-3-[(1-methylpyrazol-4-yl)methyl]-1-[(2-methyltriazol-4-yl)methyl]-2,4-dioxo-quinazoline-6-sulfonamide] |
| 100 |  | 86 | CCCn1c(=O)n(Cc2cnn(C)c2)c(=O)c2cc(S(=O)(=O)NC3(CF)CC3)ccc21 [Example 597, N-[1-(Fluoromethyl)cyclopropyl]-3-[(1-methylpyrazol-4-yl)methyl]-2,4-dioxo-1-propyl-quinazoline-6-sulfonamide] |
| 82 |  | 240 | Cn1cc(Cn2c(=O)c3cc(S(=O)(=O)NC4(CF)CC4)ccc3n(CC3CCOC3)c2=O)cn1 (stereo not shown) [Example 598, N-[1-(Fluoromethyl)cyclopropyl]-3-[(1-methylpyrazol-4-yl)methyl]-2,4-dioxo-1-(tetrahydrofuran-3-ylmethyl)quinazoline-6-sulfonamide] |
| 127 |  | 109 | Cn1cc(Cn2c(=O)c3cc(S(=O)(=O)NC4(CF)CC4)ccc3n(CC(F)F)c2=O)cn1 [Example 600, 1-(2,2-Difluoroethyl)-N-[1-(fluoromethyl)cyclopropyl]-3-[(1-methylpyrazol-4-yl)methyl]-2,4-dioxo-quinazoline-6-sulfonamide] |
| 63 |  | 76 | Cn1cc(Cn2c(=O)c3cc(S(=O)(=O)NC4(CF)CC4)ccc3n(Cc3cocn3)c2=O)cn1 [Example 607, N-[1-(Fluoromethyl)cyclopropyl]-3-[(1-methylpyrazol-4-yl)methyl]-1-(oxazol-4-ylmethyl)-2,4-dioxo-quinazoline-6-sulfonamide] |
| 64 |  | 50 | Cn1cc(Cn2c(=O)c3cc(S(=O)(=O)NC4(CF)CC4)ccc3n(CC3CCCC3)c2=O)cn1 [Example 608, 1-(Cyclopentylmethyl)-N-[1-(fluoromethyl)cyclopropyl]-3-[(1-methylpyrazol-4-yl)methyl]-2,4-dioxo-quinazoline-6-sulfonamide] |
| 51 |  | 56 | CC(C)=CCn1c(=O)n(Cc2cnn(C)c2)c(=O)c2cc(S(=O)(=O)NC3(CF)CC3)ccc21 [Example 609, N-[1-(Fluoromethyl)cyclopropyl]-1-(3-methylbut-2-enyl)-3-[(1-methylpyrazol-4-yl)methyl]-2,4-dioxo-quinazoline-6-sulfonamide] |
| 111 |  | 669 | Cn1cc(Cn2c(=O)c3cc(S(=O)(=O)NC4(CF)CC4)ccc3n(Cc3ccncc3)c2=O)cn1 [Example 610, N-[1-(Fluoromethyl)cyclopropyl]-3-[(1-methylpyrazol-4-yl)methyl]-2,4-dioxo-1-(4-pyridylmethyl)quinazoline-6-sulfonamide] |
| 113 |  | 249 | CCN(CC)CCn1c(=O)n(Cc2cnn(C)c2)c(=O)c2cc(S(=O)(=O)NC3(CF)CC3)ccc21 [Example 611, 1-[2-(Diethylamino)ethyl]-N-[1-(fluoromethyl)cyclopropyl]-3-[(1-methylpyrazol-4-yl)methyl]-2,4-dioxo-quinazoline-6-sulfonamide] |
| 42 |  | 56 | CC(C)CCn1c(=O)n(Cc2cnn(C)c2)c(=O)c2cc(S(=O)(=O)NC3(CF)CC3)ccc21 [Example 613, N-[1-(Fluoromethyl)cyclopropyl]-1-isopentyl-3-[(1-methylpyrazol-4-yl)methyl]-2,4-dioxo-quinazoline-6-sulfonamide] |
| 64 |  | 274 | Cc1cc(Cn2c(=O)n(Cc3nnc(C)s3)c(=O)c3cc(S(=O)(=O)NC4(C)CC4)ccc32)n(C)n1 [Example 615, 1-[(2,5-Dimethylpyrazol-3-yl)methyl]-N-(1-methylcyclopropyl)-3-[(5-methyl-1,3,4-thiadiazol-2-yl)methyl]-2,4-dioxo-quinazoline-6-sulfonamide] |
